Results reported in patent US20200291086A1, “BIOREVERSABLE PROMOIETIES FOR NITROGEN-CONTAINING AND HYDROXYL-CONTAINING DRUGS” (priority 2013, published 2020).
Numbered stars: 1 amine (or outer) side, 2 acyl side, 3 side chain; on linkers, the order of the positions; unused ones are H or OH. Square brackets hold non-standard residues; d marks the D form. Peptide text beside a SMILES is read from it. * marks the point of attachment. X16 = C[C@H](N)c1nc(SCC(=O)NCCNC(=O)OCC2c3ccccc3-c3ccccc32)cn1[C@@H](C)C(=O)*; X10 = C[C@H](N)c1nnnn1[C@@H](CCCCN[*:1])C(=O)[*:2]; X8 = C[C@@H](C(=O)[*:2])n1nncc1[C@@H](N)CCCCN[*:1]; X3 = NCc1cccn1[C@@H](CCCCN[*:1])C(=O)[*:2]; Fmoc = O=C(OCC1c2ccccc2-c2ccccc21)*; X15 = NCc1cc(S(N)(=O)=O)ccc1C(=O)*; X14 = NCCc1ccccc1C(=O)*

Columns and labels:
[1] = Determination of half life in serum: cleavage of promoieties from capped D-amino acid model peptides; type: in vitro ADME; settings: 100% serum, 37° C.; read-out: t 1/2 (h), cleavage of promoiety linked to N terminus of model peptide X-G-dI-dV-dE-dQ-dA-dA (converted)
Experimental: Determination of Half Life in Serum
Promoiety capped model peptides X-G-dI-dV-dE-dQ-dA-dA were used in the assay. D amino acids were used to prevent other enzymatic cleavage of the model peptides. The peptides were dissolved in 100% serum and incubated at 37° C. Samples were collected for analysis at different time points (e.g., 1 h, 2 h, 4 h, 8 h, 12 h, 24 h, 48 h, 72 h, 96 h, and 120 h).
The concentrations of the promoiety capped model peptides and the released parent model peptides were determined by their respective peak areas. The first order dissociation rate constant of a promoiety capped model peptide was determined by plotting the logarithm of [starting promoiety capped model peptide]/[remaining promoiety capped model peptide] at various time intervals. The half life for cleavage of a promoiety capped model peptide was calculated by using the equation and the slope derived from this plot.

insulin receptor = insulin receptor (Homo sapiens, UniProt P06213); settings: cited from earlier work
Sequence of insulin receptor (P06213 28-758 limits assumed, species assumed): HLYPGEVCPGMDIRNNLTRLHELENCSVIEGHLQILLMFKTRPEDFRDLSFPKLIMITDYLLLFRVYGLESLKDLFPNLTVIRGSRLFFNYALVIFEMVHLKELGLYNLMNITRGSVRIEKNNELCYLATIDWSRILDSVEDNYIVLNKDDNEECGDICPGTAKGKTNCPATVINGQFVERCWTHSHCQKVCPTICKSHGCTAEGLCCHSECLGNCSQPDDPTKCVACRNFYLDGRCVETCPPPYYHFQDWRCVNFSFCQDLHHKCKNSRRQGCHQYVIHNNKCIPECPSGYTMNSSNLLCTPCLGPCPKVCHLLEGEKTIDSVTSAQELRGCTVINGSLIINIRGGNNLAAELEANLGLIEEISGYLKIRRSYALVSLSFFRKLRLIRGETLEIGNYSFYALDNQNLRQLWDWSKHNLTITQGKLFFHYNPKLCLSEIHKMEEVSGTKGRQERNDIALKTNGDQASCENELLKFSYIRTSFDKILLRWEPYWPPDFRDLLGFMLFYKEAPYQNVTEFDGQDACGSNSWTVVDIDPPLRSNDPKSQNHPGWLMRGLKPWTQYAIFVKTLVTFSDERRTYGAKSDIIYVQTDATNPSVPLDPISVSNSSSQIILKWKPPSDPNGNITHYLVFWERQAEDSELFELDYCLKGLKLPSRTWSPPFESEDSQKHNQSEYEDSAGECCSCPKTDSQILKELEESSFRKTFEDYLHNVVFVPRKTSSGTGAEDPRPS
Sequence of insulin receptor (P06213 763-1382 partner limits assumed, species assumed): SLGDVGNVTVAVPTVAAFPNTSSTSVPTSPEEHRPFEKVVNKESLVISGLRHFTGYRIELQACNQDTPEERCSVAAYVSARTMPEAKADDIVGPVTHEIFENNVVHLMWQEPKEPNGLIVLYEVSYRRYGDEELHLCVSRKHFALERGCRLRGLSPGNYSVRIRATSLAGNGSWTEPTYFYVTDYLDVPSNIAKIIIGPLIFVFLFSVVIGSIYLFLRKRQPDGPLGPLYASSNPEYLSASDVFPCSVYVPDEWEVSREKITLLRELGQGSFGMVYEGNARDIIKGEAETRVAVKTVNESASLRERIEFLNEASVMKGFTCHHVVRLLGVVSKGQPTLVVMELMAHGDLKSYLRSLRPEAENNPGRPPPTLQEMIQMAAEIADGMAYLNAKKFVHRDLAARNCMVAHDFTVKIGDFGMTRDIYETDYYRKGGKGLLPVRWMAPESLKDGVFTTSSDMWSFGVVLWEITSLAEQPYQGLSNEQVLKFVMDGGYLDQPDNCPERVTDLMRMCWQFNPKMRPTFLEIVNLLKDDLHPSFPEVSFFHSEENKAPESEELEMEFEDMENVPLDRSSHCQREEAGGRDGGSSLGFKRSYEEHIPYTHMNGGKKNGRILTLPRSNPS

Row | half-life [1] [h] | Molecule | binding affinity retained relative to native insulin (insulin receptor)
1 | 103 | CC[C@@H](C)[C@@H](NC(=O)CNC(=O)[C@H](CCCCNC(=O)OCC1c2ccccc2-c2ccccc21)n1cccc1CN)C(=O)N[C@@H](C(=O)N[C@H](CCC(=O)O)C(=O)N[C@H](CCC(N)=O)C(=O)N[C@H](C)C(=O)N[C@H](C)C(=O)O)C(C)C (Fmoc-[X3]G[dI][dV][dE][dQ][dA][dA]-OH) | 
2 | 96.4 | CC[C@@H](C)[C@@H](NC(=O)CNC(=O)[C@H](C)n1nncc1[C@@H](N)CCCCNC(=O)OCC1c2ccccc2-c2ccccc21)C(=O)N[C@@H](C(=O)N[C@H](CCC(=O)O)C(=O)N[C@H](CCC(N)=O)C(=O)N[C@H](C)C(=O)N[C@H](C)C(=O)O)C(C)C (Fmoc-[X8]G[dI][dV][dE][dQ][dA][dA]-OH) | 
3 | 91.5 | CC[C@@H](C)[C@@H](NC(=O)CNC(=O)[C@H](CCCCNC(=O)OCC1c2ccccc2-c2ccccc21)n1nnnc1[C@H](C)N)C(=O)N[C@@H](C(=O)N[C@H](CCC(=O)O)C(=O)N[C@H](CCC(N)=O)C(=O)N[C@H](C)C(=O)N[C@H](C)C(=O)O)C(C)C (Fmoc-[X10]G[dI][dV][dE][dQ][dA][dA]-OH) | 
4 | 106 | CC[C@@H](C)[C@@H](NC(=O)CNC(=O)c1ccccc1CCN)C(=O)N[C@@H](C(=O)N[C@H](CCC(=O)O)C(=O)N[C@H](CCC(N)=O)C(=O)N[C@H](C)C(=O)N[C@H](C)C(=O)O)C(C)C (X14-G[dI][dV][dE][dQ][dA][dA]-OH) | 
5 | 39.9 | CC[C@@H](C)[C@@H](NC(=O)CNC(=O)c1ccc(S(N)(=O)=O)cc1CN)C(=O)N[C@@H](C(=O)N[C@H](CCC(=O)O)C(=O)N[C@H](CCC(N)=O)C(=O)N[C@H](C)C(=O)N[C@H](C)C(=O)O)C(C)C (X15-G[dI][dV][dE][dQ][dA][dA]-OH) | 
6 | 72.3 | CC[C@@H](C)[C@@H](NC(=O)CNC(=O)[C@H](C)n1cc(SCC(=O)NCCNC(=O)OCC2c3ccccc3-c3ccccc32)nc1[C@H](C)N)C(=O)N[C@@H](C(=O)N[C@H](CCC(=O)O)C(=O)N[C@H](CCC(N)=O)C(=O)N[C@H](C)C(=O)N[C@H](C)C(=O)O)C(C)C (X16-G[dI][dV][dE][dQ][dA][dA]-OH) | 
7 |  | [LysB29-tetradecanoyl, des B30] insulin [insulin detemir] | 15-20%
